Drawing on ChEMBL document CHEMBL1151807, “Myxotyrosides A and B, Unusual rhamnosides from Myxococcus sp” (J Nat Prod, 2009), this text covers Activity and IC50 for two molecules.

pIC50: −log10 of the molar value. The source made the active and inactive calls. The calls are words filed in the database; no cut-off is given here.

Holding throughout (type): functional, organism-based
The test system of experiment [1] is Myxococcus xanthus DK 1622. Description: Inhibition of Myxococcus xanthus DK 1622 growth at 0.5 mg after 72 hrs by agar diffusion assay. For orientation: A growth-free zone around the sample is the usual read-out of agar diffusion tests.
In experiment [2] the test system is Chromobacterium violaceum. Description: Inhibition of acyl-homoserinlactone-related quorum sensing activity in Chromobacterium violaceum at 0 to 1000 nM after 4 hrs by fluorescence assay.
The subject of experiment [3] is Escherichia coli. Description: Inhibition of acyl-homoserinlactone-related quorum sensing activity in Escherichia coli MT102 harbouring pSB403 at 0 to 1000 nM after 4 hrs by fluorescence assay.
Experiment [4] concerns Chromobacterium violaceum. Description: Quorum sensing activity in Chromobacterium violaceum assessed as activation of acyl-homoserinlactone-related signaling at 0 to 1000 nM after 4 hrs by fluorescence assay.
Experiment [5] relates to Pseudomonas putida. The experiment in a line: Inhibition of acyl-homoserinlactone-related quorum sensing activity in Pseudomonas putida F117 pAS-C8 at 0 to 1000 nM after 4 hrs by fluorescence assay.
Experiment [6] deals with Escherichia coli. The experiment in a line: Quorum sensing activity in Escherichia coli MT102 harbouring pSB403 assessed as activation of acyl-homoserinlactone-related signaling at 0 to 1000 nM after 4 hrs by fluorescence assay.
The subject of experiment [7] is Pseudomonas putida. The experiment in a line: Quorum sensing activity in Pseudomonas putida F117 pAS-C8 assessed as activation of acyl-homoserinlactone-related signaling at 0 to 1000 nM after 4 hrs by fluorescence assay.
Experiment [8] concerns Pseudomonas putida. Description: Inhibition of acyl-homoserinlactone-related quorum sensing activity in Pseudomonas putida F117 pKR-C12 at 10 ul after 24 hrs by thin-layer chromatography.
For experiment [9], the system named is Pseudomonas putida. Description: Quorum sensing activity in Pseudomonas putida F117 pKR-C12 assessed as activation of acyl-homoserinlactone-related signaling at 10 ul after 24 hrs by thin-layer chromatography.
The test system of the next experiment is Plasmodium falciparum. Description: Antiplasmodial activity against Plasmodium falciparum.
The next experiment relates to Aspergillus ruber. The experiment in a line: Antimicrobial activity against Eurotium rubrum at 50 ug/disk by disk diffusion assay.
For a further experiment, the system named is Mycotypha microspora. Description: Antimicrobial activity against Mycotypha microspora at 50 ug/disk by disk diffusion assay.
The next experiment concerns [Chlorella] fusca. Description: Antimicrobial activity against Chlorella fusca at 50 ug/disk by disk diffusion assay. Particulars: Scenedesmus fuscus.
The test system of another experiment is Microbotryum violaceum. The experiment in a line: Antimicrobial activity against Microbotryum violaceum at 50 ug/disk by disk diffusion assay.
In experiment [10] the test system is Escherichia coli. Description: Antimicrobial activity against Escherichia coli at 50 ug/disk by disk diffusion assay.
The subject of the next experiment is Priestia megaterium. The experiment in a line: Antimicrobial activity against Bacillus megaterium at 50 ug/disk by disk diffusion assay.

As for `CCCCCCCCCCCCC/C=C\C(=O)N/C=C\c1ccc(O[C@@H]2O[C@@H](C)[C@H](O)[C@@H](O)[C@H]2O)cc1`, the result (in experiment [1]; in experiment [4]; in the experiment with Escherichia coli [6]; with Pseudomonas putida [7]; in the experiment with Pseudomonas putida [9]) was inactive. Moreover, the outcome (in experiment [2]; with Escherichia coli [3]; in the experiment on Pseudomonas putida [5]; with Pseudomonas putida [8]) was Active.
As a reminder, the pIC50 is −log10 of the IC50, conventionally taken in molar units. Read a high pIC50 as a low IC50. As for `CC(C)CCCCCCCCCCC/C=C\C(=O)N/C=C\c1ccc(O[C@@H]2O[C@@H](C)[C@H](O)[C@@H](O)[C@H]2O)cc1` [MYXOTYROSIDE A], the result (in [1]; with Aspergillus ruber; in experiment [4]; in the experiment with Mycotypha microspora; in experiment [Chlorella] fusca; in the experiment on Microbotryum violaceum) was inactive. Also, the result with Escherichia coli [6], with Pseudomonas putida [7], in the experiment with Escherichia coli [10], with Pseudomonas putida [9] and in the experiment with Priestia megaterium was inactive. This molecule gave a negative-log IC50 (pIC50) in the experiment with Plasmodium falciparum of 5.15. The outcome (in experiment [2]; in the experiment on Escherichia coli [3]; in the experiment with Pseudomonas putida [5]; with Pseudomonas putida [8]) was Active.
